The values below come from publication PMC3478282, “Probing the Putative Active Site of YjdL: An Unusual Proton-Coupled Oligopeptide Transporter from E. coli” (PLoS ONE, 2012).

Residues, ends and D or L forms follow the SMILES beside them.

Holding throughout (format): cell-based, E. coli
Assay [1] deals with T1, YdgR Tyr292Phe (Escherichia coli, UniProt P77304, Y292F).
T1 construct: host or cells: E. coli BL21(DE3)pLysS
Description: β-Ala-Lys(AMCA) uptake inhibition assay, YdgR Tyr292Phe. To be noted: 0.2 mM β-Ala-Lys(AMCA), 5 min incubation, pH 6.5; ±SEM, n≥3. On the procedure:
(§1) Plasmids were transformed into E. coli BL21(DE3)pLysS cells by heat shock and transformants were selected on agar plates containing 100 µg/mL ampicillin and 34 µg/mL chloramphenicol. Single transformants were inoculated into 2 mL LB-media with antibiotics as above and grown overnight. The cultures were diluted 1∶50 in 5 mL LB-media with antibiotics as above, and at an OD600 of 0.5–0.8 protein expression was induced by the addition of 1 mM isopropyl β-D-1-thiogalactopyranoside (IPTG). The cells were harvested after three hours of induction by centrifugation and resuspended in uptake buffer (50 mM MES pH 6.5, 140 mM NaCl, 5.4 mM KCl, 1.8 mM CaCl2, 0.8 mM MgSO4, and 5 mM glucose).
(§2) Uptake assays were performed as previously described, [20]. In a final assay volume of 100 µL; 0.2 mM β-Ala-Lys-N-7-amino-4-methylcoumarin-3-acetic acid (β-Ala-Lys(AMCA), Biotrend) (10 µL) and various concentrations of ligands (purchased from Bachem or Sigma-Aldrich) or uptake buffer (50 µL) were incubated with bacterial cell suspension (OD600 = 10, 40 µL) at 37°C. […] Finally the cell pellet was resuspended in 100 µL uptake buffer, and the uptake was quantified by fluorescence measurements (excitation at 340 nm and emission at 460 nm) on a Safire 2 fluorimeter. Non-specific uptake was measured as described above on IPTG-induced E. coli BL21(DE3)pLysS cells harboring the empty pTTQ18 vector. […]

The target of assay [2] is T2, WT-YdgR (Escherichia coli, UniProt P77304).
T2 construct: expressed in transfected cells; host or cells: E. coli BL21(DE3)pLysS, pTTQ18-ydgR, IPTG-induced
T2 sequence (P77304 1-500): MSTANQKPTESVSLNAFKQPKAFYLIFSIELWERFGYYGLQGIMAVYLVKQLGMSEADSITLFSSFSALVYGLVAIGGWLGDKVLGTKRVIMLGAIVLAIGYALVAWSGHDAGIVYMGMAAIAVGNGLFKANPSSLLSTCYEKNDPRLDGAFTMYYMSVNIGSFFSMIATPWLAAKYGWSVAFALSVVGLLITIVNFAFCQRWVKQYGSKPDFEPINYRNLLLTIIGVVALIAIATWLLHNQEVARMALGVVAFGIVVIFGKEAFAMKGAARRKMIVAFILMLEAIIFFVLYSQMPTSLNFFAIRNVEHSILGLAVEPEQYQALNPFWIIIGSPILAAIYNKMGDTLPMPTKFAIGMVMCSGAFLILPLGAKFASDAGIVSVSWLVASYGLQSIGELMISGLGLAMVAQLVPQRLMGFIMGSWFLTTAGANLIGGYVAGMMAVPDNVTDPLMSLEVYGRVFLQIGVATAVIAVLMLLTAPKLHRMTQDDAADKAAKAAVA
Description: cell-based. To be noted: IC50 (inhibition of β-Ala-Lys(AMCA) uptake). The protocol:
Plasmids were transformed into E. coli BL21(DE3)pLysS cells by heat shock and transformants were selected on agar plates containing 100 µg/mL ampicillin and 34 µg/mL chloramphenicol. Single transformants were inoculated into 2 mL LB-media with antibiotics as above and grown overnight. The cultures were diluted 1∶50 in 5 mL LB-media with antibiotics as above, and at an OD600 of 0.5–0.8 protein expression was induced by the addition of 1 mM isopropyl β-D-1-thiogalactopyranoside (IPTG). […]
Uptake assays were performed as previously described, [20]. In a final assay volume of 100 µL; 0.2 mM β-Ala-Lys-N-7-amino-4-methylcoumarin-3-acetic acid (β-Ala-Lys(AMCA), Biotrend) (10 µL) and various concentrations of ligands (purchased from Bachem or Sigma-Aldrich) or uptake buffer (50 µL) were incubated with bacterial cell suspension (OD600 = 10, 40 µL) at 37°C. After 5 min, the uptake was stopped by addition of 500 µL ice-cold uptake buffer followed by immediate centrifugation and washing twice in ice-cold uptake buffer. Finally the cell pellet was resuspended in 100 µL uptake buffer, and the uptake was quantified by fluorescence measurements (excitation at 340 nm and emission at 460 nm) on a Safire 2 fluorimeter. Non-specific uptake was measured as described above on IPTG-induced E. coli BL21(DE3)pLysS cells harboring the empty pTTQ18 vector. All uptake assay experiments were reproduced at least three times independently and data analyses were performed using GraphPad Prism ver. 5.

Assay [3] has as its target T3, YjdL Gly284Met (Escherichia coli, UniProt P39276, G284M).
T3 construct: host or cells: E. coli BL21(DE3)pLysS
Description: β-Ala-Lys(AMCA) uptake assay, YjdL Gly284Met. The note with it: 0.2 mM, 5 min, pH 6.5 (Figure 3). On the procedure:
as §1, §2

Assay [4] addresses T4, YjdL Asp392Glu (Escherichia coli, UniProt P39276, D392E).
T4 construct: host or cells: E. coli BL21(DE3)pLysS
Description: β-Ala-Lys(AMCA) uptake assay, YjdL Asp392Glu. To be noted: standard conditions: 0.2 mM, 5 min, pH 6.5 (Figure 3). The protocol: as §1, §2

Assay [5] deals with T5, YjdL Tyr25Leu (Escherichia coli, UniProt P39276, Y25L).
T5 construct: expressed in transfected cells; host or cells: E. coli BL21(DE3)pLysS, pTTQ18-yjdL mutant (QuikChange)
Description: β-Ala-Lys(AMCA) uptake assay, YjdL Tyr25Leu. The note with it: 0.2 mM, 5 min, pH 6.5 (Figure 3). On the procedure:
as §1, §2

In assay [6] the target is T6, YjdL Lys117Gln (Escherichia coli, UniProt P39276, K117Q).
T6 construct: host or cells: E. coli BL21(DE3)pLysS
Description: β-Ala-Lys(AMCA) uptake assay, YjdL Lys117Gln. To be noted: 0.2 mM, 5 min, pH 6.5 (Figure 3). On the procedure:
as §1, §2

In assay [7] the target is T7, YjdL Lys117Arg (Escherichia coli, UniProt P39276, K117R).
T7 construct: host or cells: E. coli BL21(DE3)pLysS
Description: β-Ala-Lys(AMCA) uptake assay, YjdL Lys117Arg. To be noted: 0.2 mM, 5 min, pH 6.5 (Figure 3). The protocol: as §1, §2

The target of assay [8] is T8, YjdL Tyr21Arg (Escherichia coli, UniProt P39276, Y21R).
T8 construct: host or cells: E. coli BL21(DE3)pLysS
Description: β-Ala-Lys(AMCA) uptake assay, YjdL Tyr21Arg. To be noted: 0.2 mM, 5 min, pH 6.5 (Figure 3). The protocol: as §1, §2

Assay [9] relates to YjdL Tyr113Asn. Description: β-Ala-Lys(AMCA) uptake assay, YjdL Tyr113Asn. The note with it: 0.2 mM, 5 min, pH 6.5 (Figure 3). The protocol: as §1, §2

T1 sequence (P77304 whole entry Y292F): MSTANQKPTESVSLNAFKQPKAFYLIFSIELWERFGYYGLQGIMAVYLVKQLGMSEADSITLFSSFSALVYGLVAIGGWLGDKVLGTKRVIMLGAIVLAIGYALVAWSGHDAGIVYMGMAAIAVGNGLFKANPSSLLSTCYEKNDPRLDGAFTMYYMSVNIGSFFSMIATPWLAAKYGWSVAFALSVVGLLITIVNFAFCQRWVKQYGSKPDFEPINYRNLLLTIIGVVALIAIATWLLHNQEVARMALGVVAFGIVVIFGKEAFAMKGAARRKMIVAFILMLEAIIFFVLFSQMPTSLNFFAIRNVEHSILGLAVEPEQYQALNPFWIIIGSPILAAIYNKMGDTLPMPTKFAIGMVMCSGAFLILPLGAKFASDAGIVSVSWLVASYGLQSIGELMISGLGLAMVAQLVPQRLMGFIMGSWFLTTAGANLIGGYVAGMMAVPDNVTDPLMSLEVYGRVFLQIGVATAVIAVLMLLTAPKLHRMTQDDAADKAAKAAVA
T7 sequence (P39276 whole entry K117R): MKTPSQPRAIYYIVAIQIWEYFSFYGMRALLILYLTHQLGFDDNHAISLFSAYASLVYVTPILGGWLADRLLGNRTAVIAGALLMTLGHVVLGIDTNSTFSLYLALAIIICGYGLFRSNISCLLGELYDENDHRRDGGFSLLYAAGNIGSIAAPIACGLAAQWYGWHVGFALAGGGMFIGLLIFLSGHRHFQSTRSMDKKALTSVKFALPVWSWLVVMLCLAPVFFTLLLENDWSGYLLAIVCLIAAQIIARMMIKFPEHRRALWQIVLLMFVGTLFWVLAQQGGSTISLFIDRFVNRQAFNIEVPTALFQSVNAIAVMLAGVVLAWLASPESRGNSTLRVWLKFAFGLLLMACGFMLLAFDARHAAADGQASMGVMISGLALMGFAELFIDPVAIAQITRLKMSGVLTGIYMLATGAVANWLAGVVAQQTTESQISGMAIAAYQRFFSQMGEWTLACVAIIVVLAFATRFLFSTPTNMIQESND
T8 sequence (P39276 whole entry Y21R): as the sequence (P39276 whole entry K117R) above, with Y21R, R117K counted along it
T3 sequence (P39276 whole entry G284M): as the sequence (P39276 whole entry K117R) above, with R117K, G284M counted along it
T6 sequence (P39276 whole entry K117Q): as the sequence (P39276 whole entry K117R) above, with R117Q counted along it
T4 sequence (P39276 whole entry D392E): as the sequence (P39276 whole entry K117R) above, with R117K, D392E counted along it
T5 sequence (P39276 whole entry Y25L): as the sequence (P39276 whole entry K117R) above, with Y25L, R117K counted along it

Broadly, the IC50 is the concentration that gives 50% inhibition. Lower therefore signals inhibition by little substance. As to `C[C@H](N)C(=O)N[C@@H](C)C(=O)O` [Ala-Ala] (H-Ala-Ala-OH), the values for the IC50 in [1], in assay [2] (WT-YdgR a) and in [2] (WT-YdgR b) were 150 ± 30 µM, 390 ± 40 µM and 1040 ± 60 µM, respectively.
Consider “β-Ala-Lys-N-7-amino-4-methylcoumarin-3-acetic acid [β-Ala-Lys(AMCA)]”, for which, in assay [3], the “β-Ala-Lys(AMCA) uptake level, YjdL Gly284Met” value amounted to 20%. For the same compound, in assay [4], the “β-Ala-Lys(AMCA) uptake level, YjdL Asp392Glu” value turned out to be 26%. The “β-Ala-Lys(AMCA) uptake level, YjdL Tyr25Leu” value in assay [5] stood at 14%. In [6], the “β-Ala-Lys(AMCA) uptake level, YjdL Lys117Gln” value came out at 9%. Also, the “β-Ala-Lys(AMCA) uptake level, YjdL Lys117Arg” value in [7] is listed as 17%. Further, in assay [8], the “β-Ala-Lys(AMCA) uptake level, YjdL Tyr21Arg” value was 11%. The “increase of β-Ala-Lys(AMCA) uptake, YjdL Tyr113Asn” value in assay [9] is recorded as around 2 fold.
